Counter-ions that a name gives are not always drawn. Like-named read-outs stand apart in the source and are kept apart here.
Columns and labels:
[1] = system: human ovarian cancer OVCAR3 cell xenograft tumor; conditions: doxorubicin hydrochloride 3 mg/kg i.v. qw x 4 w; for tumor growth inhibition (in words): (I-1) 100 mg/kg p.o. qd x 28 d; for RTV on day 29 after administration (mean value ± standard error) / T/C (%) on day 29 after administration: day 29, (I-1) 100 mg/kg p.o. qd x 28 d
Text: A total of 71 immunodeficient mice were subcutaneously injected with 10×10^6 OVCAR3 cells to establish a xenograft tumor model. Tumor-bearing mice with uniform tumors were randomly grouped into different treatment groups based on tumor volume, with 7 mice in each group.
Tumor cells: OVCAR3; 10×10^6 cells+Matrigel gel/mouse. A total of 71 mice were inoculated. 28 tumor-bearing mice with relatively uniform tumors were selected and randomly divided into 4 experimental groups, with 7 mice per group.
(§1) Under sterile conditions, a xenograft tumor model was established by subcutaneous injection of tumor cells into the right dorsal side of immunodeficient mice. When the tumor reached an appropriate size (100 mm^3 to 200 mm^3), the animals were randomly grouped by randomized block method based on the tumor volume of the animals, the tumor volume difference of each group should be less than 20% of the mean value, with 6 to 7 animals in each group, and administration was started on the day of grouping (i.e., d1). The body weight and tumor size of the animals were measured twice a week during the experiment. The clinical symptoms were observed and recorded daily. At the end of administration or at the end of the experiment.
(§2) The tumor volume (TV) was calculated as follows: TV=a×b^2/2, where a and b represent the measured length and width of the tumor, respectively.
(§3) The relative tumor volume (RTV) was calculated as follows: RTV=Vt/V1, where V1 represents the tumor volume at the time of grouping and administration (day 1), and Vt represents the tumor volume at the time of measurement.
(§4) The synergy score was calculated using the following formula (Clarke R, 1997):
(§5) [formula] • where A represents response to drug A; B represents response to drug B; C represents response to vehicle control; AB represents response to combination treatment with A and B.
(§6) The antitumor growth curves of the test substances were plotted by taking the X-axis as the treatment time (day) and the corresponding tumor volume (mean value) as the Y-axis. […] All data were statistically analyzed using SPSS (Statistical Product and Service Solutions) software (version 18.0, IBM, Armonk, NY, U.S.). Graphing was performed using Prism version 6 (GraphPad Software Inc., San Diego, CA).
(§7) For combination treatment, a synergy score of <1 indicated antagonistic effect, a synergy score of =1 indicated additive effect, and a synergy score of >1 indicated synergistic effect.

[2] = system: human ovarian cancer OVCAR3 cell xenograft tumor; conditions: PLD 3 mg/kg i.v. qw x 3 w; for tumor growth inhibition (in words): (I-1) 100 mg/kg p.o. qd x 21 d
Text: A total of 56 immunodeficient mice were subcutaneously injected with 10×10^6 OVCAR3 cells to establish a xenograft tumor model. Tumor-bearing mice with uniform tumors were randomly grouped into different treatment groups based on tumor volume, with 6 mice in each group.
Tumor cells: OVCAR3; 10×10^6 cells+Matrigel gel/mouse. A total of 56 mice were inoculated. 24 tumor-bearing mice with relatively uniform tumors were selected and randomly divided into 4 experimental groups, with 6 mice in each group.
as §1, §2, §3, §4, §5, §6, §7

[3] = system: mouse ovarian cancer ID8 cells; test: Murine ovarian cancer ID8 cell intraperitoneal model, combination with PLD; type: in vivo, mouse (C57BL/6)
Protocol: A total of 90 C57BL/6 mice were intraperitoneally injected with 15×10^6 ID8 cells to establish an ovarian cancer intraperitoneal model.
The body weight and tumor volume of the animals were measured twice or thrice a week during the experiment. The clinical symptoms were observed and recorded daily. After the administration was completed, the abdominal girth, body weight, and survival time of the mice were continuously observed until all the animals were subjected to euthanasia.
The tumor volume (TV) was measured using an IVIS imaging system, and the total luminescence value (Total flux) of each mouse was calculated under the same measurement area.
The animals were euthanized according to animal welfare principles when the body weight loss of the animals exceeded 20%, disease progression or moribund state was observed, the tumor burden exceeded 10% of the animal's body weight, the abdominal girth exceeded 100 mm, or the body weight exceeded 30 g.
Graphing was performed using Prism version 9 (GraphPad Software Inc., San Diego, CA), and the survival time and ascites production time were analyzed using the log-rank test.

[4] = day 22, (I-1) 100 mg/kg p.o. qd x 21 d

SMILES | tumor growth inhibition (in words) [1] | RTV on day 29 after administration (mean value ± standard error) [1] | T/C (%) on day 29 after administration [1] [%] | tumor growth inhibition (in words) [2] | RTV on day 22 after administration (mean value ± standard error) [2, 4] | T/C (%) on day 22 after administration [2, 4] [%] | survival time of the mice (in words) ([3]; compared with the solvent control group (combination also vs. monotherapy groups)) | T/C on day 22 ([3]; day 22, (I-1) 100 mg/kg p.o. qd x 21 d, PLD 3 mg/kg i.v. qw x 3 w) [%] | T/C (%) on day 36 after administration ([3]; day 36, (I-1) 100 mg/kg p.o. qd x 21 d, PLD 3 mg/kg i.v. qw x 3 w) [%] | RTV on day 36 after administration (mean value ± standard error) ([3]; day 36, in vivo imaging (Total flux), (I-1) 100 mg/kg p.o. qd x 21 d, PLD 3 mg/kg i.v. qw x 3 w)
Cc1cc(Nc2ncc(Cl)c(Nc3ccccc3S(=O)(=O)C(C)C)n2)c(OC(C)C)cc1C1=CCN(C2CCOCC2)CC1 [Compound represented by formula (I-1)] | moderate tumor growth inhibition | 7.95 ± 1.31 | 63.15 | moderate tumor growth inhibition | 7.42 ± 1.06 | 72.77 | prolonged | 37.49 | 97.13 | 4.72 ± 1.35
COc1cccc2c1C(=O)c1c(O)c3c(c(O)c1C2=O)C[C@@](O)(C(=O)CO)C[C@@H]3O[C@H]1C[C@H](N)[C@H](O)[C@H](C)O1 [Doxorubicin hydrochloride, reference compound] | moderate tumor growth inhibition | 8.88 ± 1.19 | 70.50 | moderate tumor growth inhibition | – | – | – | – | – | –

Source: patent US20260240843A1, “PHARMACEUTICAL COMPOSITION AND USE THEREOF” (priority 2023, published 2026)
